According to patent publication US20220117903A1, “DRUG DELIVERY SYSTEM AND METHOD” (SEOUL NATIONAL UNIVERSITY R&DB FOUNDATION, priority 2019, published 2022):

Tested on: 4T1 tumors
Assay: Therapeutic efficacy in mice bearing 4T1 tumors
Assay type: in vivo
Settings: doxorubicin equivalent 5 mg/kg, four treatments once every 3 days
Experimental: Referring to FIGS. 22 and 23, the amounts of doxorubicin in four groups are equivalent at 5 mg/kg, and all mice received a total of four treatments once every 3 days.

COc1cccc2c1C(=O)c1c(O)c3c(c(O)c1C2=O)C[C@@](O)(C(=O)CO)C[C@@H]3O[C@H]1C[C@H](N)[C@H](O)[C@H](C)O1 [free doxorubicin, doxorubicin]
effect on tumor progression / tumor growth: Neither mice treated with free doxorubicin nor with MSNs-Tz/anti-CD11b-TCO without doxorubicin had an effect on tumor progression
